Measurements: PubChem BioAssay (NCI)
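Step 1: Grow cells in 96-well plates. Step 2: Expose to compound for 48 hours at 5 concentrations. Step 3: Interpolate endpoints linearly; if unreached, use highest concentration. GI50: concentration for 50% inhibition of growth. TGI is the concentration that stops growth completely.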 Where a SMILES comes first, the peptide text is derived from it. [ ]: non-standard residue; d: D form. The star is where a group is joined. Nle = CCCC[C@H](N)C(=O)O; Cbz = O=C(OCc1ccccc1)*

Assays:
Assay in all cases: DTP human tumour cell line panel, 48 h
786-0 renal = tested on: 786-0 renal
A498 renal = tested on: A498 renal
A549 NSCLC = tested on: A549 NSCLC
ACHN renal = tested on: ACHN renal
BT-549 breast = tested on: BT-549 breast
CAKI-1 renal = tested on: CAKI-1 renal
CCRF-CEM leukemia = tested on: CCRF-CEM leukemia
COLO 205 colon = tested on: COLO 205 colon
DU-145 prostate = tested on: DU-145 prostate
EKVX NSCLC = tested on: EKVX NSCLC
HCC-2998 colon = tested on: HCC-2998 colon
HCT-116 colon = tested on: HCT-116 colon
HCT-15 colon = tested on: HCT-15 colon
HL-60(TB) leukemia = tested on: HL-60(TB) leukemia
HOP-62 NSCLC = tested on: HOP-62 NSCLC
HOP-92 NSCLC = tested on: HOP-92 NSCLC
HS 578T breast = tested on: HS 578T breast
HT29 colon = tested on: HT29 colon
IGROV1 ovarian = tested on: IGROV1 ovarian
K-562 leukemia = tested on: K-562 leukemia
KM12 colon = tested on: KM12 colon
LOX IMVI melanoma = tested on: LOX IMVI melanoma
M14 melanoma = tested on: M14 melanoma
MALME-3M melanoma = tested on: MALME-3M melanoma
MCF7 breast = tested on: MCF7 breast
MDA-MB-231 breast = tested on: MDA-MB-231 breast
MDA-MB-435 = tested on: MDA-MB-435
MOLT-4 leukemia = tested on: MOLT-4 leukemia
NCI-H226 lung = tested on: NCI-H226 lung
NCI-H23 lung = tested on: NCI-H23 lung
NCI-H460 lung = tested on: NCI-H460 lung
NCI-H522 lung = tested on: NCI-H522 lung
NCI/ADR-RES ovarian = tested on: NCI/ADR-RES ovarian
OVCAR-3 ovarian = tested on: OVCAR-3 ovarian
OVCAR-4 ovarian = tested on: OVCAR-4 ovarian
OVCAR-5 ovarian = tested on: OVCAR-5 ovarian
OVCAR-8 ovarian = tested on: OVCAR-8 ovarian
PC-3 prostate = tested on: PC-3 prostate
RPMI-8226 leukemia = tested on: RPMI-8226 leukemia
RXF 393 renal = tested on: RXF 393 renal
SF-268 CNS = tested on: SF-268 CNS
SF-295 CNS = tested on: SF-295 CNS
SF-539 CNS = tested on: SF-539 CNS
SK-MEL-2 melanoma = tested on: SK-MEL-2 melanoma
SK-MEL-28 melanoma = tested on: SK-MEL-28 melanoma
SK-MEL-5 melanoma = tested on: SK-MEL-5 melanoma
SK-OV-3 ovarian = tested on: SK-OV-3 ovarian
SNB-19 CNS = tested on: SNB-19 CNS
SR leukemia = tested on: SR leukemia
SW-620 colon = tested on: SW-620 colon
T-47D breast = tested on: T-47D breast
TK-10 renal = tested on: TK-10 renal
U251 CNS = tested on: U251 CNS
UACC-257 melanoma = tested on: UACC-257 melanoma
UACC-62 melanoma = tested on: UACC-62 melanoma
UO-31 renal = tested on: UO-31 renal

**Q.** Which results are given for `CCCC[C@@H](C=O)NC(=O)[C@H](CC(C)C)NC(=O)[C@H](CC(C)C)NC(=O)OCc1ccccc1` (Cbz-Leu-Leu-[Nle]-aldehyde)?
**A.** GI50 (786-0 renal): 243 nM; TGI (786-0 renal): 1410 nM; GI50 (A498 renal): 305 nM; TGI (A498 renal): 964 nM; GI50 (A549 NSCLC): 663 nM; TGI (A549 NSCLC): 12200 nM; GI50 (ACHN renal): 366 nM; TGI (ACHN renal): 2430 nM; GI50 (BT-549 breast): 409 nM; TGI (BT-549 breast): 2590 nM; GI50 (CAKI-1 renal): 441 nM; TGI (CAKI-1 renal): 2150 nM; GI50 (CCRF-CEM leukemia): 440 nM; TGI (CCRF-CEM leukemia): > 100000 nM; GI50 (COLO 205 colon): 979 nM; TGI (COLO 205 colon): 6200 nM; GI50 (DU-145 prostate): 617 nM; TGI (DU-145 prostate): 2460 nM; GI50 (EKVX NSCLC): 1060 nM; TGI (EKVX NSCLC): > 59000 nM; GI50 (HCC-2998 colon): 593 nM; TGI (HCC-2998 colon): 1960 nM; GI50 (HCT-116 colon): 173 nM; TGI (HCT-116 colon): 349 nM; GI50 (HCT-15 colon): 1270 nM; TGI (HCT-15 colon): 4940 nM; GI50 (HL-60(TB) leukemia): 1010 nM; TGI (HL-60(TB) leukemia): > 100000 nM; GI50 (HOP-62 NSCLC): 415 nM; TGI (HOP-62 NSCLC): 1550 nM; GI50 (HOP-92 NSCLC): 2090 nM; TGI (HOP-92 NSCLC): 6220 nM; GI50 (HS 578T breast): 308 nM; TGI (HS 578T breast): 4180 nM; GI50 (HT29 colon): 349 nM; TGI (HT29 colon): > 34000 nM; GI50 (IGROV1 ovarian): 308 nM; TGI (IGROV1 ovarian): 4390 nM; GI50 (K-562 leukemia): 988 nM; TGI (K-562 leukemia): > 100000 nM; GI50 (KM12 colon): 504 nM; GI50 (LOX IMVI melanoma): 226 nM; TGI (LOX IMVI melanoma): 537 nM; GI50 (M14 melanoma): 244 nM; TGI (M14 melanoma): 603 nM; GI50 (MALME-3M melanoma): 570 nM; TGI (MALME-3M melanoma): 4870 nM; GI50 (MCF7 breast): 546 nM; TGI (MCF7 breast): 20700 nM; GI50 (MDA-MB-231 breast): 444 nM; TGI (MDA-MB-231 breast): 1910 nM; GI50 (MDA-MB-435): 212 nM; TGI (MDA-MB-435): 469 nM; GI50 (MOLT-4 leukemia): 517 nM; TGI (MOLT-4 leukemia): > 100000 nM; GI50 (NCI-H226 lung): 175 nM; TGI (NCI-H226 lung): 343 nM; GI50 (NCI-H23 lung): 380 nM; TGI (NCI-H23 lung): 1770 nM; GI50 (NCI-H460 lung): 1570 nM; TGI (NCI-H460 lung): 6280 nM; GI50 (NCI-H522 lung): 662 nM; TGI (NCI-H522 lung): 5820 nM; GI50 (NCI/ADR-RES ovarian): 3960 nM; TGI (NCI/ADR-RES ovarian): > 32600 nM; GI50 (OVCAR-3 ovarian): 361 nM; TGI (OVCAR-3 ovarian): 4660 nM; GI50 (OVCAR-4 ovarian): 1070 nM; TGI (OVCAR-4 ovarian): > 81000 nM; GI50 (OVCAR-5 ovarian): 930 nM; TGI (OVCAR-5 ovarian): 2840 nM; GI50 (OVCAR-8 ovarian): 1410 nM; TGI (OVCAR-8 ovarian): > 37500 nM; GI50 (PC-3 prostate): 2370 nM; TGI (PC-3 prostate): > 21100 nM; GI50 (RPMI-8226 leukemia): 359 nM; GI50 (RXF 393 renal): 144 nM; TGI (RXF 393 renal): 316 nM; GI50 (SF-268 CNS): 406 nM; TGI (SF-268 CNS): 4170 nM; GI50 (SF-295 CNS): 486 nM; TGI (SF-295 CNS): 5710 nM; GI50 (SF-539 CNS): 268 nM; TGI (SF-539 CNS): 2530 nM; GI50 (SK-MEL-2 melanoma): 791 nM; TGI (SK-MEL-2 melanoma): 2840 nM; GI50 (SK-MEL-28 melanoma): 430 nM; TGI (SK-MEL-28 melanoma): 1610 nM; GI50 (SK-MEL-5 melanoma): 432 nM; TGI (SK-MEL-5 melanoma): 1880 nM; GI50 (SK-OV-3 ovarian): 1310 nM; TGI (SK-OV-3 ovarian): > 71500 nM; GI50 (SNB-19 CNS): 5370 nM; TGI (SNB-19 CNS): > 21200 nM; GI50 (SR leukemia): 279 nM; TGI (SR leukemia): 1360 nM; GI50 (SW-620 colon): 298 nM; TGI (SW-620 colon): 2500 nM; GI50 (T-47D breast): 688 nM; GI50 (TK-10 renal): 332 nM; GI50 (U251 CNS): 570 nM; TGI (U251 CNS): 2120 nM; GI50 (UACC-257 melanoma): 395 nM; TGI (UACC-257 melanoma): 1960 nM; GI50 (UACC-62 melanoma): 403 nM; TGI (UACC-62 melanoma): 1510 nM; GI50 (UO-31 renal): 398 nM; TGI (UO-31 renal): 1670 nM
